Laboratory results from patent publication US11226337B2, “Chemoproteomic profiling of protein electrophilic and oxidative post-translational modifications” (Zenagem, LLC, priority 2017, dated 2022).

Key:
Test in all cases: SILAC RP-ABPP
Assay type in all cases: cell-based
[1] = target: T1, P4HA1 Prolyl 4hydroxylase subunit alpha1 (P13674) (Homo sapiens, UniProt P13674); conditions: SILAC H/L, MDA-MB-231
T1 construct: In Situ Labelling of Cells with Hydrazine Probes for MS Experiments; endogenous in cells
T1 sequence (P13674 18-534): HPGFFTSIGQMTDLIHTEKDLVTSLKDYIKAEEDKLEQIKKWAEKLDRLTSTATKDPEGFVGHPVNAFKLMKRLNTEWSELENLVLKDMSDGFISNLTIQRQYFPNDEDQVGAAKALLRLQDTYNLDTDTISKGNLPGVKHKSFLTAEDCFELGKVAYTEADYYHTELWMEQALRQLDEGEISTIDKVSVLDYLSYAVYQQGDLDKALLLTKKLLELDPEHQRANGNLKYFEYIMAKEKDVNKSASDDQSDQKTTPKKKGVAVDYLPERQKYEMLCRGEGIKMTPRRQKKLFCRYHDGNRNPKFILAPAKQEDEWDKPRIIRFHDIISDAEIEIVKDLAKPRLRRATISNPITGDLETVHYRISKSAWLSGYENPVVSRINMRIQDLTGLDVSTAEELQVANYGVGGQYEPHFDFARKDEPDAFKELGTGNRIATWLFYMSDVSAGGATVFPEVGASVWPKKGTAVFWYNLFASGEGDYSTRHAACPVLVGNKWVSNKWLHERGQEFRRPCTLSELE
T1 sequence (P07237 18-508 partner): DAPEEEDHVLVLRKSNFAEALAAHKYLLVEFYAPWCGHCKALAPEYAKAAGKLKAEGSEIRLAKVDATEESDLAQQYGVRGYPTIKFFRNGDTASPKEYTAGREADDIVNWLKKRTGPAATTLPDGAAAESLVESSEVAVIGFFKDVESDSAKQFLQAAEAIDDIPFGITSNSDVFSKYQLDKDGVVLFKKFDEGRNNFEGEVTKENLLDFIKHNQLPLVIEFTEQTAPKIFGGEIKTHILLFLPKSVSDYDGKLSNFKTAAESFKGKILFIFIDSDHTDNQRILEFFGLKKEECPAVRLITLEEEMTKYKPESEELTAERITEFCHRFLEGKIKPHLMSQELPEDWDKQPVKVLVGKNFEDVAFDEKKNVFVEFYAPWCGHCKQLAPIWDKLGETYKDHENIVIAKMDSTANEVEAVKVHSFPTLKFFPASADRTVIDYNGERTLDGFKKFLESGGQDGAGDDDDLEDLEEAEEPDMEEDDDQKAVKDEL

[2] = target: T2, FASTICD5 FAST kinase domain containing (Q7L8L6) (Homo sapiens, UniProt Q7L8L6); conditions: SILAC H/L, HEK293T
T2 construct: shared by both the endogenous and recombinant forms of these proteins; endogenous in cells; host or cells: HEK293T and MDA-MB-231
T2 sequence (Q7L8L6 28-764): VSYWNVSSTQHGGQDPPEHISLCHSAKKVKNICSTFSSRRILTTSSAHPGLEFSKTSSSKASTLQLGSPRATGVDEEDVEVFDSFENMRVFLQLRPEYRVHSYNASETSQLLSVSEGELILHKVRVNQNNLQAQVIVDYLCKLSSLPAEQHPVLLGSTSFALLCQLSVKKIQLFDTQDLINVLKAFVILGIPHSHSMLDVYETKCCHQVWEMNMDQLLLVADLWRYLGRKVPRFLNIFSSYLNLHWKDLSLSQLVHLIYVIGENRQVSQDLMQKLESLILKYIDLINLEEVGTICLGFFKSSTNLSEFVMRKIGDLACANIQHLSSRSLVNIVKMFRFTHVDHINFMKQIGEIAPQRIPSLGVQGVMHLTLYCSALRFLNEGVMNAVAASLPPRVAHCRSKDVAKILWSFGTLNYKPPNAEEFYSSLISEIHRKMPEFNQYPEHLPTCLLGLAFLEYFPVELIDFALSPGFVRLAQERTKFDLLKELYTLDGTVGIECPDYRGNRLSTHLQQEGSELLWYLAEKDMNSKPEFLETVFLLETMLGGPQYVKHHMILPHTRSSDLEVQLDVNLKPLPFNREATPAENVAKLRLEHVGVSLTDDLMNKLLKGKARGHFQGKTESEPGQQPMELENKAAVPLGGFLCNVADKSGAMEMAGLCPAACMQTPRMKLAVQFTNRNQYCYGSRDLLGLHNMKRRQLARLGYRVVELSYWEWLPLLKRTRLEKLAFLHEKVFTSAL

[3] = target: T3, CTSD Cathepsin D (P07339) (Homo sapiens, UniProt P07339); conditions: SILAC H/L
T3 construct: In Situ Labelling of Cells with Hydrazine Probes for MS Experiments; endogenous in cells; host or cells: HEK293T and MDA-MB-231
T3 sequence (P07339 65-412): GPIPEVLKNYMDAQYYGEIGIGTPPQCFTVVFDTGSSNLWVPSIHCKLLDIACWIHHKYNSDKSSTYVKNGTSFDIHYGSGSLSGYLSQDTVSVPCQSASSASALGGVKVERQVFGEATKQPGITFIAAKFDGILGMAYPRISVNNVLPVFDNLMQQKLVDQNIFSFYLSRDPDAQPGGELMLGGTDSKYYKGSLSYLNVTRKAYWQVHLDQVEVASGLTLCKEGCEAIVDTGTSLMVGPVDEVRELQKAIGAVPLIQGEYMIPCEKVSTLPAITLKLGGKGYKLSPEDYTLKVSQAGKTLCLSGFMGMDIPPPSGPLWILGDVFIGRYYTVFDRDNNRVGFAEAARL

enrichment ratioavg ([1]; probe 2 1 mM 0.5 h vs probe 4)	competition ratioavg ([1]; probe 2 vs probe 2+10x probe 4)	enrichment ratioavg ([2]; probe 2 1 mM 0.5 h vs probe 4)	competition ratioavg ([2]; probe 2 vs probe 2+10x probe 4)	enrichment ratioavg ([3]; probe 2 1 mM 0.5 h vs probe 4, MDA-MB-231)	competition ratioavg ([3]; probe 2 vs probe 2+10x probe 4, MDA-MB-231)	SMILES	enrichment ratioavg ([1]; probe 1 3 mM 0.5 h vs probe 3)	competition ratioavg ([1]; probe 1 vs probe 1+10x probe 3)	enrichment ratioavg ([2]; probe 1 3 mM 0.5 h vs probe 3)	competition ratioavg ([2]; probe 1 vs probe 1+10x probe 3)	enrichment ratioavg ([3]; probe 1 3 mM 0.5 h vs probe 3, HEK293T)	competition ratioavg ([3]; probe 1 vs probe 1+10x probe 3, HEK293T)
–	–	–	–	–	–	C#CCNN.Cl [probe 1, prop-2-yn-1-ylhydrazine hydrochloride]	15	2	18	3	13	1
8	3	10	3	16	4	C#CCCNC(=O)c1ccc(NN)cc1.Cl [probe 2, N-(but-3-yn-1-yl)-4-hydrazinylbenzamide hydrochloride]	–	–	–	–	–	–
